# Assay results: publication PMC9821843, “Powerful Potential of Polyfluoroalkyl-Containing 4-Arylhydrazinylidenepyrazol-3-ones for Pharmaceuticals” (Molecules, 2022)
# Several values for one entry are separate records, joined by “and”; a condition that tells them apart may be missing. Identical values can stand only once. Like-named read-outs stand apart in the source and are kept apart here.
# What was measured:
# Sprague-Dawley (SD) rats = assay: Hot plate test (analgesic activity); type: in vivo; conditions: ip; for change in vivo at 15 mg/kg: Rattus norvegicus
# Procedure, shortened: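 Test compounds were given i.p. as suspensions in 1% starch mucilage to SD rats (3 male, 3 female per group), vehicle as negative control. At 1 and 2 h post-dose, latency to nociceptive response (jumping, hind paw licking/shaking) on a 50 °C plate was recorded, 30 s cutoff.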
# [1] = ABTS radical cation scavenging activity assay; set-up: key to ABTS•+-scavenging activity, TEAC (trolox equivalent antioxidant capacity): TEAC = ratio of compound slope to Trolox slope vs ABTS absorbance; conditions: mean ± SEM; for ABTS•+-scavenging activity, TEAC (trolox equivalent antioxidant capacity): n.a. = inactive
# Procedure, shortened: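 ABTS•+ (from 7 mM ABTS plus 2.45 mM persulfate) mixed with compound, 5 × 10^–7–4 × 10^–4 M, 1 h at 30 °C; absorbance decrease read at 734 nm. TEAC from slope ratio versus Trolox; IC50 as 50% radical reduction for compounds exceeding 60% reduction at 100 µM.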
# [2] = Acute toxicity evaluation in mice (ip); conditions: CD-1, mouse, in vivo, 300 mg/kg
# Procedure: The toxicity evaluation was performed on CD-1 mice. […] The tested compounds in 1% starch mucilage were injected intraperitoneally into three mice. Then, animals were observed during 14 days, the number of deaths was counted and % of viability calculated.
# [3] = test system: Microsporum canis RCPF F 1643/1585; assay: Antifungal susceptibility testing, M. canis; conditions: for MIC: Microsporum canis, RCPFF1643/1585, read-out: MIC for fungi strains inhibition, M. canis
# Excerpt: (§1) The solvent was DMSO. […] In each test, a growth control and a sterility control were used.
# [4] = test system: Trichophyton rubrum RCPF F 1408; assay: Antifungal susceptibility testing, T. rubrum; conditions: for MIC: Trichophyton rubrum, RCPFF1408, read-out: MIC for fungi strains inhibition, T. rubrum
# Excerpt: as §1
# [5] = test system: Neisseria gonorrhoeae ATCC 49226/NCTC 12700; assay: Antibacterial activity against Neisseria gonorrhoeae; type: cell-based; conditions: read-out: MIC against Neisseria gonorrhoeae
# HeLa tumor cell line = assay: Cytotoxicity against HeLa cells (MTT assay); type: cell-based, human; conditions: for IC50: Homo sapiens, HeLa, 72 h, MTT, n.a. = inactive, read-out: IC50, HeLa; for Selectivity Index (SI): ratio of average IC50 in normal fibroblasts to average IC50 for HeLa
# Procedure: Cytotoxicity of compounds was evaluated using a culture of human dermal fibroblasts, which were isolated in the Laboratory of Cell Cultures of the Institute of Medical Cell Technologies, Ekaterinburg, Russia and a HeLa tumor cell line obtained at the shared research facility «Vertebrate cell culture collection» of the Institute of Cytology of the Russian Academy of Sciences, St. Petersburg, Russia. Cells were seeded in 96-well plates in the inoculum dose of 2 × 10^5 cells/mL and cultured for 24 h in DMEM, with 1% glutamine in the presence of 10% fetal bovine serum and gentamicin (50 mg/L) at 37 °C, with humidified atmosphere of 5% CO2. Then compounds, which were dissolved in DMSO, were added to the wells at the final concentrations of 10^–7, 10^–6, 10^–5 and 10^–4 M. The cells were incubated with compounds for 72 h, after which cell viability was assessed using the standard MTT assay. The assay was carried out in four replicates with negative (culture medium), positive (solution of the cytotoxic drug camptothecin at a concentration of 3 mM) controls and the solvent control (DMSO). The results of the MTT assay were evaluated on a Tecan Infinite M200 PRO (Tecan Austria GmbH, Grödig, Austria) plate spectrophotometer by comparing the optical density of a formazan solution at 570 nm in the assay and control wells. The half maximal inhibitory concentrations (IC50) were calculated by AAT Bioquest-calculator (https://www.aatbio.com/tools/ic50-calculator (accessed on 14 November 2022)).
# [6] = hot plate test, rats, dose 15 mg/kg, 1 h, n.a. = inactive (p > 0.05), read-out: Latent Period Prolongation, % 1 h
# [7] = hot plate test, rats, dose 15 mg/kg, 2 h, n.a. = inactive (p > 0.05), read-out: Latent Period Prolongation, % 2 h
# [8] = 1 h, read-out: Latent Period Prolongation, % 1 h
# [9] = 2 h, read-out: Latent Period Prolongation, % 2 h
Structure (SMILES),change in vivo at 15 mg/kg (Sprague-Dawley (SD) rats; [6]) [%],IC50 [1] [µM],"ABTS•+-scavenging activity, TEAC (trolox equivalent antioxidant capacity) [1]",survival at 14 days [2] [%],MIC [3] [µg/mL],MIC [4] [µg/mL],change in vivo at 15 mg/kg (Sprague-Dawley (SD) rats; [7]) [%],MIC [5] [µg/mL],IC50 (HeLa tumor cell line) [µM],Selectivity Index (SI) (HeLa tumor cell line),"MIC for fungi strains inhibition, M. canis [3] [µg/mL]","MIC for fungi strains inhibition, T. rubrum [4] [µg/mL]","analgesic activity in the hot plate test (Sprague-Dawley (SD) rats; SD rats, dose 15 mg/kg, 1 and 2 h)",change in vivo at 15 mg/kg (Sprague-Dawley (SD) rats; [8]) [%],change in vivo at 15 mg/kg (Sprague-Dawley (SD) rats; [9]) [%]
"O=C1NN=C(C(F)(F)F)/C1=N/Nc1ccccc1 [5a, (Z)-4-(2-Phenylhydrazinylidene)-5-(trifluoromethyl)-2,4-dihydro-3H-pyrazol-3-one]",40,42.8 ± 2.3,0.50 ± 0.03,100,,,,,,,,,,,
"Cc1ccc(N/N=C2\C(=O)NN=C2C(F)(F)F)cc1 [5b, (4Z)-4-[2-(4-Methylphenyl)hydrazinylidene]-5-(trifluoromethyl)-2,4-dihydro-3H-pyrazol-3-one]",69.5,46.2 ± 2.4,0.42 ± 0.03,100,100,50,59.7,62.5,2.26 ± 0.14,3.62,,,,,
"O=C1NN=C(C(F)(F)F)/C1=N/Nc1ccc(Br)cc1 [5c, (4Z)-4-[2-(4-Bromophenyl)hydrazinylidene]-5-(trifluoromethyl)-2,4-dihydro-3H-pyrazol-3-one]",,41.5 ± 2.4,0.40 ± 0.02,100,25,12.5,51,125,,,25,12.5,,,
"Cc1ccc(N/N=C2\C(=O)N(C)N=C2C(F)(F)F)cc1 [5d, (4Z)-2-Methyl-4-[2-(4-methylphenyl)hydrazinylidene]-5-(trifluoromethyl)-2,4-dihydro-3H-pyrazol-3-one]",,161 ± 3.2,0.15 ± 0.01,100,200,200,,15.6,,,,,inactive,,
"Cc1ccc(N/N=C2\C(=O)N(c3ccccc3)N=C2C(F)(F)F)cc1 [5f, (4Z)-4-[2-(4-Methylphenyl)hydrazinylidene]-2-phenyl-5-(trifluoromethyl)-2,4-dihydro-3H-pyrazol-3-one]",63,,0.1 ± 0.006,100,200,> 200,68,62.5,4.49 ± 0.18,4.56,,,,,
"CS(=O)(=O)c1ccc(N/N=C2\C(=O)N(c3ccccc3)N=C2C(F)(F)F)cc1 [5m, (4Z)-4-(2-[4-(Methylsulfonyl)phenyl]hydrazinylidene)-2-phenyl-5-(trifluoromethyl)-2,4-dihydro-3H-pyrazol-3-one]",116,,,100,> 200,100,144,125,,,,,,,
"Cc1ccc(N/N=C2\C(=O)N(c3ccc(S(N)(=O)=O)cc3)N=C2C(F)(F)F)cc1 [5p, (4Z)-2-[4-(Aminosulfonyl)phenyl]-4-[2-(4-methylphenyl)hydrazinylidene]-5-(trifluoromethyl)-2,4-dihydro-3H-pyrazol-3-one]",62.1,,0.03 ± 0.002,100,> 200,> 200,70.9,62.5,,,,,,,
"Cc1ccc(N/N=C2\C(=O)NN=C2C(F)(F)C(F)(F)F)cc1 [6a, (4Z)-4-[2-(4-Methylphenyl)hydrazinylidene]-5-(pentafluoroethyl)-2,4-dihydro-3H-pyrazol-3-one]",83.9,46.8 ± 2.1,0.45 ± 0.03,100,,,63.3,62.5,1.47 ± 0.13,8.83,,,,,
"Cc1ccc(N/N=C2\C(=O)N(c3ccccc3)N=C2C(F)(F)C(F)(F)F)cc1 [6b, (4Z)-4-[2-(4-Methylphenyl)hydrazinylidene]-5-(pentafluoroethyl)-2-phenyl-2,4-dihydro-3H-pyrazol-3-one]",158,,0.04 ± 0.002,100,,,74.3,0.9,65.9 ± 5.22,1.49,,,,,
"Cc1ccc(N/N=C2\C(=O)NN=C2C(F)(F)C(F)(F)C(F)(F)F)cc1 [7a, (4Z)-5-(Heptafluoropropyl)-4-[2-(4-methylphenyl)hydrazinylidene]-2,4-dihydro-3H-pyrazol-3-one]",,41.5 ± 1.8,0.54 ± 0.03,100,> 200,> 200,,> 250,,,,,,42,52
"Cc1ccc(N/N=C2\C(=O)N(c3ccccc3)N=C2C(F)(F)C(F)(F)C(F)(F)F)cc1 [7b, (4Z)-5-(Heptafluoropropyl)-4-[2-(4-methylphenyl)hydrazinylidene]-2-phenyl-2,4-dihydro-3H-pyrazol-3-one]",,,0.03 ± 0.002,100,,,,31.2,59.7 ± 6.34,1.24,,,,144,82.3
"CC1=NNC(=O)/C1=N\Nc1ccc(C)cc1 [9a, (4Z)-5-Methyl-4-[2-(4-methylphenyl)hydrazinylidene]-2,4-dihydro-3H-pyrazol-3-one]",80.8,25.4 ± 1.1,0.86 and 0.86 ± 0.04,100,,,,> 250,3.16 ± 0.25,7.68,,,,,
"CC1=NN(c2ccccc2)C(=O)/C1=N\Nc1ccc(C)cc1 [9b, (4Z)-5-Methyl-4-[2-(4-methylphenyl)hydrazinylidene]-2-phenyl-2,4-dihydro-3H-pyrazol-3-one]",,28.3 ± 1.2,0.8 and 0.80 ± 0.05,100,> 200,> 200,140,> 250,46.5 ± 1.98,0.52,,,,,
